Data as given in patent US8956824B2, “Methods for identifying allosteric modulators of ship polypeptides” (British Columbia Cancer Agency Branch, priority 2006, dated 2015).

Legend:
[1] = test system: SHIP1+/+ and SHIP1−/− BMMCs; experiment: IgE+antigen-induced calcium flux in BMMCs; assay type: cell-based, mouse; conditions: 30 min pretreatment, DNP-HSA stimulation
Description: Production of SHIP+/+ and SHIP−/− BMMCs and BMnφs. To obtain BMMCs, bone marrow cells were aspirated from 4 to 8 week old C57B16×129Sv mixed background mice and SHIP1+/+ and SHIP1−/− BMMCs prepared as described previously (17). After 8 weeks in IMDM+15% FCS (StemCell Technologies, Vancouver, Canada)+150 μM MTG+30 ng/ml IL-3 (BMMC medium) more than 99% of the cells were c-kit and FcεR1 positive as determined by flow cytometry with FITC-labeled anti-c-kit (BD Pharmingen, Mississauga, Canada) and FITC-labeled IgE (anti-Epo), respectively. BMmφs from SHIP1+/+ and SHIP1−/− mice were obtained and maintained in IMDM supplemented with 10% FCS, 150 μM MTG, 2% C127 cell conditioned medium as a source of macrophage colony stimulating factor (MCSF) (BMmφ medium).
Stimulation of BMMCs by FcεR1 crosslinking. SHIP1+/+ and SHIP1−/− BMMCs were pre-loaded overnight in BMMC medium lacking IL-3 with 0.1 μg/ml anti-DNP IgE (SPE-7, Sigma, Oakville, Ont). […] Calcium influx was then monitored by spectrofluorometry as described previously (19). […] Total cell lysates were then prepared and analyzed for phospho-PKB, phospho-p38MAPK, phospho-MAPK, Grb-2 (Cell Signalling, Mississauga, Ont) and SHIP1 (18) by immunoblot analysis as described previously (20). […]

wild-type SHIP1 enzyme = target: T1, wild-type SHIP1 enzyme (Mus musculus, UniProt Q9ES52); experiment: Scintillation proximity assay, wild-type SHIP1; assay type: binding; conditions: 5 μCi
T1 construct: Full length, wild-type SHIP1 enzyme (wt); made in house; host or cells: 293T cells, transient transfection with pME18S-His-SHIP
T1 sequence (Q9ES52 1-1191): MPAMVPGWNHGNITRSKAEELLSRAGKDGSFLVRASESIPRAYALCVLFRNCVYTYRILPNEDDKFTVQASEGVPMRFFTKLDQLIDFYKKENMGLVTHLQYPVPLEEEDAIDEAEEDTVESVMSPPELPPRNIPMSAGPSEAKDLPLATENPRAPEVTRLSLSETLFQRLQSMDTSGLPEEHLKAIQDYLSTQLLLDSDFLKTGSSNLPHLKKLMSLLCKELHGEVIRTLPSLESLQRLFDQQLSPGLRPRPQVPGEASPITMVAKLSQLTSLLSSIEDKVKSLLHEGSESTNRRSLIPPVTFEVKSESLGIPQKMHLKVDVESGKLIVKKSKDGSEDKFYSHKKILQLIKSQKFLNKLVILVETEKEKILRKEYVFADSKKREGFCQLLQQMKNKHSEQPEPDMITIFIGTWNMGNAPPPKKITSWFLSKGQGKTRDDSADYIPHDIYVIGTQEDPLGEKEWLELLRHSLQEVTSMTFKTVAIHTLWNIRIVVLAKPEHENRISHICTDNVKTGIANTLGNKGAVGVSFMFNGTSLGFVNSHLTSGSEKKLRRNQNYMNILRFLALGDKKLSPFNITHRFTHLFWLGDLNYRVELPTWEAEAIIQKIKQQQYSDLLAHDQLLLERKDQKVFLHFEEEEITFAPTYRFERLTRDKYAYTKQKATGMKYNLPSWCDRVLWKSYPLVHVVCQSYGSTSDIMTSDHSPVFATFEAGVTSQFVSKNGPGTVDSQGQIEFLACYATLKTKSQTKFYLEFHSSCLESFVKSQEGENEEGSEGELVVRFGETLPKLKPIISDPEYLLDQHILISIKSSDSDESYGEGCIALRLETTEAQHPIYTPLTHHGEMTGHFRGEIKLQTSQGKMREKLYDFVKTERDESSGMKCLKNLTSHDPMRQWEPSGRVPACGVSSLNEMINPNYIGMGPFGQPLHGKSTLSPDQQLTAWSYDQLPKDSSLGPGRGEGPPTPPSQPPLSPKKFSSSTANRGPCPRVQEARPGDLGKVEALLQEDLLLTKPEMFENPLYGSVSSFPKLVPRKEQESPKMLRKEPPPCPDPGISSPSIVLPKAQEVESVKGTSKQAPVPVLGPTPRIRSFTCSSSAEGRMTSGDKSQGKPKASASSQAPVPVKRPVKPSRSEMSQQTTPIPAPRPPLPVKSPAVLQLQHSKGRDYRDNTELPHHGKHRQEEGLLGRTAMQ
Description: Scintillation Proximity Assays AQX-MN100 was radiolabeled with tritium by GE Healthcare (Piscataway, N.J.) to a specific activity of 42 Ci/mmole. Copper chelate (His-Tag) YSi YSi SPA Scintillation Beads (GE Healthcare ,Piscataway, NJ) were diluted in 0.25% BSA/TBS to 1.5 mg/mL and recombinant, His6-tagged protein added at the indicated concentrations: wild-type (1 pM), ΔC2 SHIP enzyme (1 pM) or C2 domain (10 nM). Protein was allowed to bind 1 h at 23° C., and 250 μg of beads were aliquoted per well of a 96-well plate. 5 μCi of [3H]-AQX-MN100 was added per well, the plate gently agitated for 30 min and the amount of bead associated radioactivity quantified by counting in a Wallac BETAPLATE™ plate scintillation counter. Results are representative of 3 independent experiments.

Compound | IgE+antigen-induced calcium entry, SHIP1+/+ vs SHIP1−/− mast cells [1] | binding of [3H]-AQX-MN100 to wild-type SHIP1 (wild-type SHIP1 enzyme)
Cc1cc(O)c(O)c2c1[C@]1(C)CC[C@H]3C(C)(C)CCC[C@]3(C)[C@H]1C2 [AQX-016A] | inhibited IgE+antigen-induced calcium entry to a substantially greater degree in SHIP1+/+ than in SHIP1−/− | 
Cc1cc(O)cc2c1[C@]1(C)CC[C@H]3C(C)(C)CCC[C@]3(C)[C@H]1C2 [AQX-MN100] |  | binds to wild-type SHIP1
